Assay results as given in PubChem BioAssay (NCI).
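In this assay, cells in 96-well plates receive the compound at five concentrations for 48 hours. Endpoints are linearly interpolated between the surrounding concentrations. Abbreviation: GI50, concentration required for 50% inhibition of growth. TGI is the concentration that stops growth completely.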

Key:
Experiment in all cases: DTP human tumour cell line panel, 48 h; in the data active means GI50 below about 0.43 µM; inactive means the rest
786-0 renal = system: 786-0 renal
A498 renal = system: A498 renal
A549 NSCLC = system: A549 NSCLC
ACHN renal = system: ACHN renal
BT-549 breast = system: BT-549 breast
CAKI-1 renal = system: CAKI-1 renal
CCRF-CEM leukemia = system: CCRF-CEM leukemia
COLO 205 colon = system: COLO 205 colon
DU-145 prostate = system: DU-145 prostate
EKVX NSCLC = system: EKVX NSCLC
HCC-2998 colon = system: HCC-2998 colon
HCT-116 colon = system: HCT-116 colon
HCT-15 colon = system: HCT-15 colon
HOP-62 NSCLC = system: HOP-62 NSCLC
HOP-92 NSCLC = system: HOP-92 NSCLC
HS 578T breast = system: HS 578T breast
HT29 colon = system: HT29 colon
IGROV1 ovarian = system: IGROV1 ovarian
K-562 leukemia = system: K-562 leukemia
KM12 colon = system: KM12 colon
LOX IMVI melanoma = system: LOX IMVI melanoma
M14 melanoma = system: M14 melanoma
MCF7 breast = system: MCF7 breast
MDA-MB-231 breast = system: MDA-MB-231 breast
MDA-MB-435 = system: MDA-MB-435
MOLT-4 leukemia = system: MOLT-4 leukemia
NCI-H226 lung = system: NCI-H226 lung
NCI-H23 lung = system: NCI-H23 lung
NCI-H460 lung = system: NCI-H460 lung
NCI-H522 lung = system: NCI-H522 lung
NCI/ADR-RES ovarian = system: NCI/ADR-RES ovarian
OVCAR-3 ovarian = system: OVCAR-3 ovarian
OVCAR-4 ovarian = system: OVCAR-4 ovarian
OVCAR-5 ovarian = system: OVCAR-5 ovarian
OVCAR-8 ovarian = system: OVCAR-8 ovarian
PC-3 prostate = system: PC-3 prostate
RPMI-8226 leukemia = system: RPMI-8226 leukemia
RXF 393 renal = system: RXF 393 renal
SF-268 CNS = system: SF-268 CNS
SF-295 CNS = system: SF-295 CNS
SF-539 CNS = system: SF-539 CNS
SK-MEL-2 melanoma = system: SK-MEL-2 melanoma
SK-MEL-28 melanoma = system: SK-MEL-28 melanoma
SK-MEL-5 melanoma = system: SK-MEL-5 melanoma
SK-OV-3 ovarian = system: SK-OV-3 ovarian
SN12C renal = system: SN12C renal
SNB-19 CNS = system: SNB-19 CNS
SNB-75 CNS = system: SNB-75 CNS
SR leukemia = system: SR leukemia
SW-620 colon = system: SW-620 colon
T-47D breast = system: T-47D breast
TK-10 renal = system: TK-10 renal
U251 CNS = system: U251 CNS
UACC-257 melanoma = system: UACC-257 melanoma
UACC-62 melanoma = system: UACC-62 melanoma
UO-31 renal = system: UO-31 renal
HL-60(TB) leukemia = system: HL-60(TB) leukemia

CCOC(=O)Nc1ccc2c3c(cccc13)-c1ccccc1-2
> 100 µM: TGI (786-0 renal) | TGI (A498 renal) | TGI (A549 NSCLC) | TGI (ACHN renal) | TGI (BT-549 breast) | TGI (CAKI-1 renal) | TGI (CCRF-CEM leukemia) | TGI (COLO 205 colon) | TGI (DU-145 prostate) | TGI (EKVX NSCLC) | TGI (HCC-2998 colon) | TGI (HCT-116 colon) | TGI (HCT-15 colon) | TGI (HOP-62 NSCLC) | TGI (HOP-92 NSCLC) | TGI (HS 578T breast) | TGI (HT29 colon) | TGI (IGROV1 ovarian) | TGI (K-562 leukemia) | TGI (KM12 colon) | TGI (LOX IMVI melanoma) | TGI (M14 melanoma) | TGI (MCF7 breast) | TGI (MDA-MB-231 breast) | TGI (MOLT-4 leukemia) | TGI (NCI-H226 lung) | TGI (NCI-H23 lung) | TGI (NCI-H460 lung) | TGI (NCI-H522 lung) | TGI (NCI/ADR-RES ovarian) | TGI (OVCAR-4 ovarian) | TGI (OVCAR-5 ovarian) | TGI (OVCAR-8 ovarian) | TGI (PC-3 prostate) | TGI (RPMI-8226 leukemia) | TGI (RXF 393 renal) | TGI (SF-268 CNS) | TGI (SF-539 CNS) | TGI (SK-MEL-2 melanoma) | TGI (SK-MEL-28 melanoma) | TGI (SK-MEL-5 melanoma) | TGI (SK-OV-3 ovarian) | TGI (SN12C renal) | TGI (SNB-19 CNS) | TGI (SNB-75 CNS) | TGI (SR leukemia) | TGI (SW-620 colon) | TGI (T-47D breast) | TGI (TK-10 renal) | TGI (U251 CNS) | TGI (UACC-257 melanoma) | TGI (UACC-62 melanoma) | TGI (UO-31 renal)
inactive: GI50 (786-0 renal) 8 µM | GI50 (A498 renal) 4.68 µM | GI50 (A549 NSCLC) 6.03 µM | GI50 (ACHN renal) 9.73 µM | GI50 (BT-549 breast) > 100 µM | GI50 (CAKI-1 renal) 3.29 µM | GI50 (CCRF-CEM leukemia) 7.85 µM | GI50 (COLO 205 colon) 4.25 µM | GI50 (DU-145 prostate) 7.56 µM | GI50 (EKVX NSCLC) 2.18 µM | GI50 (HCC-2998 colon) 9.56 µM | GI50 (HCT-116 colon) 4.22 µM | GI50 (HCT-15 colon) 4.32 µM | GI50 (HOP-62 NSCLC) 5.27 µM | GI50 (HOP-92 NSCLC) > 100 µM | GI50 (HS 578T breast) 3.91 µM | GI50 (HT29 colon) 3.67 µM | GI50 (IGROV1 ovarian) 1.98 µM | GI50 (K-562 leukemia) 4.12 µM | GI50 (KM12 colon) 2.32 µM | GI50 (LOX IMVI melanoma) 4.77 µM | GI50 (M14 melanoma) 4.32 µM | GI50 (MCF7 breast) 1.64 µM | GI50 (MDA-MB-231 breast) 2.58 µM | GI50 (MDA-MB-435) 0.862 µM | GI50 (MOLT-4 leukemia) 8.5 µM | GI50 (NCI-H226 lung) > 100 µM | GI50 (NCI-H23 lung) 98.1 µM | GI50 (NCI-H460 lung) 3.99 µM | GI50 (NCI-H522 lung) > 100 µM | GI50 (NCI/ADR-RES ovarian) 4.32 µM | GI50 (OVCAR-3 ovarian) 2.72 µM | GI50 (OVCAR-4 ovarian) > 100 µM | GI50 (OVCAR-5 ovarian) > 100 µM | GI50 (OVCAR-8 ovarian) > 100 µM | GI50 (PC-3 prostate) 9.45 µM | GI50 (RPMI-8226 leukemia) 5.51 µM | GI50 (RXF 393 renal) 6.92 µM | GI50 (SF-268 CNS) 33.3 µM | GI50 (SF-295 CNS) 2.82 µM | GI50 (SF-539 CNS) 5.65 µM | GI50 (SK-MEL-2 melanoma) > 100 µM | GI50 (SK-MEL-28 melanoma) 10.7 µM | GI50 (SK-MEL-5 melanoma) 3.96 µM | GI50 (SK-OV-3 ovarian) 9.18 µM | GI50 (SN12C renal) 5.98 µM | GI50 (SNB-19 CNS) 23.5 µM | GI50 (SNB-75 CNS) 8.97 µM | GI50 (SR leukemia) 4.36 µM | GI50 (SW-620 colon) 3.92 µM | GI50 (T-47D breast) 2.57 µM | GI50 (TK-10 renal) > 100 µM | GI50 (U251 CNS) 5.52 µM | GI50 (UACC-257 melanoma) > 100 µM | GI50 (UACC-62 melanoma) 3.71 µM | GI50 (UO-31 renal) 2.59 µM
3.54 µM: TGI (MDA-MB-435)
8.92 µM: TGI (OVCAR-3 ovarian)
7.87 µM: TGI (SF-295 CNS)

O=C(NCCNc1nccc(-c2c(-c3ccc(F)cc3)nc3sccn23)n1)Nc1cccc(C(F)(F)F)c1
34 µM: TGI (RPMI-8226 leukemia)
17.5 µM: TGI (NCI-H460 lung)
27.6 µM: TGI (CAKI-1 renal)
27.4 µM: TGI (OVCAR-8 ovarian)
36.2 µM: TGI (TK-10 renal)
24.9 µM: TGI (786-0 renal)
32 µM: TGI (SW-620 colon)
28 µM: TGI (HT29 colon)
30.9 µM: TGI (DU-145 prostate)
23.8 µM: TGI (A498 renal)
10.1 µM: TGI (HOP-62 NSCLC) | TGI (MDA-MB-231 breast)
30.1 µM: TGI (CCRF-CEM leukemia)
26 µM: TGI (NCI-H522 lung)
36.8 µM: TGI (SNB-19 CNS)
55.3 µM: TGI (SR leukemia)
17 µM: TGI (UACC-62 melanoma)
24.5 µM: TGI (A549 NSCLC)
20 µM: TGI (IGROV1 ovarian)
43 µM: TGI (OVCAR-4 ovarian)
94.5 µM: TGI (OVCAR-3 ovarian)
42.3 µM: TGI (PC-3 prostate)
8.48 µM: TGI (T-47D breast)
26.1 µM: TGI (UACC-257 melanoma)
17.7 µM: TGI (HCC-2998 colon)
10.6 µM: TGI (NCI-H226 lung)
16 µM: TGI (UO-31 renal)
65.5 µM: TGI (HS 578T breast)
22.7 µM: TGI (SN12C renal)
18.9 µM: TGI (HCT-116 colon)
41.1 µM: TGI (SF-268 CNS)
30.6 µM: TGI (EKVX NSCLC)
19.5 µM: TGI (MCF7 breast)
17.6 µM: TGI (SF-295 CNS)
23.9 µM: TGI (KM12 colon)
> 100 µM: TGI (HL-60(TB) leukemia) | TGI (K-562 leukemia) | TGI (MOLT-4 leukemia)
26.4 µM: TGI (NCI-H23 lung)
21.7 µM: TGI (SNB-75 CNS)
36.7 µM: TGI (ACHN renal)
26.7 µM: TGI (SF-539 CNS)
11.4 µM: TGI (MDA-MB-435)
20.9 µM: TGI (SK-MEL-28 melanoma)
31.7 µM: TGI (U251 CNS)
7.73 µM: TGI (COLO 205 colon)
30.5 µM: TGI (BT-549 breast)
3.43 µM: TGI (SK-MEL-5 melanoma)
8.8 µM: TGI (SK-MEL-2 melanoma)
33.3 µM: TGI (HOP-92 NSCLC)
21.8 µM: TGI (M14 melanoma)
64.2 µM: TGI (NCI/ADR-RES ovarian)
47.9 µM: TGI (HCT-15 colon)
6.05 µM: TGI (RXF 393 renal)
54.4 µM: TGI (OVCAR-5 ovarian)
11.9 µM: TGI (SK-OV-3 ovarian)
inactive: GI50 (786-0 renal) 5.16 µM | GI50 (A498 renal) 10.7 µM | GI50 (A549 NSCLC) 5.51 µM | GI50 (ACHN renal) 4.14 µM | GI50 (BT-549 breast) 13.2 µM | GI50 (CAKI-1 renal) 3.68 µM | GI50 (CCRF-CEM leukemia) 3.14 µM | GI50 (COLO 205 colon) 2.57 µM | GI50 (DU-145 prostate) 11.6 µM | GI50 (EKVX NSCLC) 4.69 µM | GI50 (HCC-2998 colon) 5.21 µM | GI50 (HCT-116 colon) 5.47 µM | GI50 (HCT-15 colon) 4.22 µM | GI50 (HL-60(TB) leukemia) 11.5 µM | GI50 (HOP-62 NSCLC) 2.9 µM | GI50 (HOP-92 NSCLC) 4.59 µM | GI50 (HS 578T breast) 8.17 µM | GI50 (HT29 colon) 6.44 µM | GI50 (IGROV1 ovarian) 4.59 µM | GI50 (K-562 leukemia) 6.14 µM | GI50 (KM12 colon) 6.43 µM | GI50 (LOX IMVI melanoma) 5.36 µM | GI50 (M14 melanoma) 8.73 µM | GI50 (MCF7 breast) 3.73 µM | GI50 (MDA-MB-231 breast) 3.28 µM | GI50 (MDA-MB-435) 3.12 µM | GI50 (MOLT-4 leukemia) 6.3 µM | GI50 (NCI-H226 lung) 2.38 µM | GI50 (NCI-H23 lung) 8.73 µM | GI50 (NCI-H460 lung) 4.51 µM | GI50 (NCI-H522 lung) 12.2 µM | GI50 (NCI/ADR-RES ovarian) 4.38 µM | GI50 (OVCAR-3 ovarian) 17.7 µM | GI50 (OVCAR-4 ovarian) 4.74 µM | GI50 (OVCAR-5 ovarian) 18.5 µM | GI50 (OVCAR-8 ovarian) 3.76 µM | GI50 (PC-3 prostate) 3.93 µM | GI50 (RPMI-8226 leukemia) 3.52 µM | GI50 (RXF 393 renal) 1.99 µM | GI50 (SF-268 CNS) 12.2 µM | GI50 (SF-295 CNS) 4.28 µM | GI50 (SF-539 CNS) 11.5 µM | GI50 (SK-MEL-2 melanoma) 3.02 µM | GI50 (SK-MEL-28 melanoma) 7.76 µM | GI50 (SK-MEL-5 melanoma) 1.58 µM | GI50 (SK-OV-3 ovarian) 2.67 µM | GI50 (SN12C renal) 6.42 µM | GI50 (SNB-19 CNS) 7.93 µM | GI50 (SNB-75 CNS) 7.13 µM | GI50 (SR leukemia) 5.4 µM | GI50 (SW-620 colon) 13.6 µM | GI50 (T-47D breast) 2.15 µM | GI50 (TK-10 renal) 10.5 µM | GI50 (U251 CNS) 7.62 µM | GI50 (UACC-257 melanoma) 10.6 µM | GI50 (UACC-62 melanoma) 4.75 µM | GI50 (UO-31 renal) 2.94 µM
20.7 µM: TGI (LOX IMVI melanoma)
